These are literature values, as cited in patent publication US20040019115A1, “Use of milnacipran for the treatment of tension-type headache” (priority 2002, published 2004).

The conditions of the series: patients with chronic tension-type headache, prophylactic treatment.

For the molecule `CN(C)CCC=C1c2ccccc2CCc2ccccc21` [Amitriptyline], the reduction of headache is given as 30%.
